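Method: 48-hour compound exposure of cells in 96-well plates, five concentrations, linear interpolation of endpoints. TGI denotes the concentration required for complete inhibition of growth.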
Legend:
Assay in all cases: NCI-60 cell line screen, 48 h
SK-MEL-5 melanoma = test system: SK-MEL-5 melanoma
SF-539 CNS = test system: SF-539 CNS
SF-295 CNS = test system: SF-295 CNS
HL-60(TB) leukemia = test system: HL-60(TB) leukemia
COLO 205 colon = test system: COLO 205 colon
HCT-15 colon = test system: HCT-15 colon
U251 CNS = test system: U251 CNS
MDA-MB-435 = test system: MDA-MB-435
MDA-N = test system: MDA-N
RXF 393 renal = test system: RXF 393 renal
HCC-2998 colon = test system: HCC-2998 colon
K-562 leukemia = test system: K-562 leukemia
KM12 colon = test system: KM12 colon
M14 melanoma = test system: M14 melanoma
OVCAR-3 ovarian = test system: OVCAR-3 ovarian
SK-MEL-2 melanoma = test system: SK-MEL-2 melanoma
MCF7 breast = test system: MCF7 breast
HCT-116 colon = test system: HCT-116 colon
HOP-62 NSCLC = test system: HOP-62 NSCLC
SK-MEL-28 melanoma = test system: SK-MEL-28 melanoma
NCI-H226 lung = test system: NCI-H226 lung
NCI-H23 lung = test system: NCI-H23 lung
HT29 colon = test system: HT29 colon
PC-3 prostate = test system: PC-3 prostate
CAKI-1 renal = test system: CAKI-1 renal
HS 578T breast = test system: HS 578T breast
OVCAR-5 ovarian = test system: OVCAR-5 ovarian
786-0 renal = test system: 786-0 renal
EKVX NSCLC = test system: EKVX NSCLC
RPMI-8226 leukemia = test system: RPMI-8226 leukemia
ACHN renal = test system: ACHN renal
NCI-H460 lung = test system: NCI-H460 lung
IGROV1 ovarian = test system: IGROV1 ovarian
DU-145 prostate = test system: DU-145 prostate
HOP-92 NSCLC = test system: HOP-92 NSCLC
SN12C renal = test system: SN12C renal
UACC-257 melanoma = test system: UACC-257 melanoma
SR leukemia = test system: SR leukemia
SF-268 CNS = test system: SF-268 CNS
UO-31 renal = test system: UO-31 renal
TK-10 renal = test system: TK-10 renal
UACC-62 melanoma = test system: UACC-62 melanoma
OVCAR-8 ovarian = test system: OVCAR-8 ovarian
SK-OV-3 ovarian = test system: SK-OV-3 ovarian
LOX IMVI melanoma = test system: LOX IMVI melanoma
OVCAR-4 ovarian = test system: OVCAR-4 ovarian
A549 NSCLC = test system: A549 NSCLC
A498 renal = test system: A498 renal
BT-549 breast = test system: BT-549 breast
CCRF-CEM leukemia = test system: CCRF-CEM leukemia
T-47D breast = test system: T-47D breast
SNB-19 CNS = test system: SNB-19 CNS
NCI/ADR-RES ovarian = test system: NCI/ADR-RES ovarian
SW-620 colon = test system: SW-620 colon
MOLT-4 leukemia = test system: MOLT-4 leukemia
MALME-3M melanoma = test system: MALME-3M melanoma
MDA-MB-231 breast = test system: MDA-MB-231 breast
NCI-H522 lung = test system: NCI-H522 lung

Measured: TGI

O=C1c2ccc3c4ccc5c6c(ccc(c7ccc(c2c37)C(=O)N1CCN1CCCCC1)c64)C(=O)N(CCN1CCCCC1)C5=O
not listed: MALME-3M melanoma | MDA-MB-231 breast | NCI-H522 lung
> 100 µM: all other assays above

CN1N(c2ccccc2)C(=O)C2=NC=C(C(=O)c3ccccc3)C(=N)C21C (stereo not given)
not listed: KM12 colon | OVCAR-8 ovarian | NCI/ADR-RES ovarian
> 100 µM: all other assays above

Source: PubChem BioAssay (NCI)
